# Measured values taken from paper PMC13289212, “HIVIL: A human in vitro inflammatory liver model recapitulates immune-associated drug effects with high predictivity” (NAM journal, 2025).
# Legend:
# TNFα = details: ref Shaw et al. 2010; Zou et al. 2009; Bekker et al. 2012; Gandhi et al. 2013; Heidari et al. 2019; cited from earlier work
# IL-6 [1] = test system: IL-6; parameters: method as in ref Hassan et al. 2016; Giustarini et al. 2019; Higuchi et al. 2012; Dik et al. 2018; details: ref Hassan et al. 2016; Giustarini et al. 2019; Higuchi et al. 2012; Dik et al. 2018; cited from earlier work
# iHeps = test: RNA-Seq of iHeps from mono-culture and HIVIL; assay type: cell-based, human
# Text: Subsequent analyses compared gene fold-changes of treated samples against their respective vehicle controls: "m" and "c" indicate mono- and co-culture, and "–" and "+" represent the absence or presence of LPS. […] However, this is only applicable for co-cultures where downstream effects can be traced back to cytokine changes, and not in monocultures where significant upstream cytokine changes are not observed.
# RNA extraction was done using TRIzol and analyzed on a Tapestation 4200 to determine RNA Integrity Number (RIN). Only samples with RIN > 8 were sequenced. Illumina Stranded mRNA multiplexing was done with unique 96 dual indices, and all samples sequenced on the same lane of NovaSeq 6000 S4 flowcell. Data normalization was performed using DESeq2 v1.32.0 ([Love et al., 2014]) on the R programming language v4.1.0 ([R Core Team, 2021]; [R Team, 2021]). Gene enrichment analysis was done with fgsea v1.18 ([Korotkevich et al., 2021]) with gene sets downloaded from MSigDB and KEGG pathway visualization done via pathview v1.32 ([Kanehisa et al., 2021]; [Luo and Brouwer, 2013]). Other plots were produced using ggplot2 v3.3.5 and scatterplot3d v0.3-41 ([Ligges and Maechler, 2003]). The RNA-Seq dataset has been deposited in NCBI under accession number GSE189320.
# RNA seq and analysis: After 48 hr of drug treatment, iHeps cultured in mono-culture and HIVIL were both subjected to TrypLE^TM dissociation, and subsequently sorted with magnetic separation with the CD163 Microbead kit (Miltenyi Biotec, Bergisch Gladbach, Germany) to obtain only iHeps. Flow-through was collected, pelleted down and snap-frozen in liquid nitrogen, before storage at -80°C. Lysates were sent to the Genome Research Informatics and Data Science platform (Agency for Science, Technology and Research, Singapore). RNA extraction was done using TRIzol and analyzed on a Tapestation 4200 to determine RNA Integrity Number (RIN). All sequenced samples included for further analysis had RIN > 8. Illumina Stranded mRNA multiplexing was done with unique 96 dual indices, and all samples sequenced on the same lane of NovaSeq 6000 S4 flowcell. Sequenced reads were trimmed for adaptor sequence using Trim Galore v0.6.4, then aligned to human genome build GRCh38 using STAR_2.6.1d. Aligned reads are summarized into count matrices using featureCounts v1.6.4 with the gene annotation file from GENCODE v37.
# Data normalization was performed using DESeq2 v1.32.0 (Love et al. 2014) on the R programming language v4.1.0 (Core Team 2021; Team 2021). Gene enrichment analysis was done with fgsea v1.18 (Korotkevich et al. 2021) with gene sets downloaded from MSigDB and KEGG pathway visualization done via pathview v1.32 (Kanehisa et al. 2021; Luo and Brouwer 2013). Other plots were produced using ggplot2 v3.3.5 and scatterplot3d v0.3-41 (Ligges and Maechler 2003). The RNA-Seq dataset has been deposited in NCBI under accession number GSE189320.
# IL-6 [2] = test: IL-6 ELISA in HIVIL (iKCs co-cultured with iHeps, LPS, 48 hr); assay type: cell-based, human; details: HIVIL
# IL-6 [3] = test: as above; assay type: cell-based, human; details: HIVIL co-treated with TVX and LPS
# [4] = test system: HIVIL (iKCs co-cultured with iHeps); test: AlamarBlue cell viability in HIVIL
# Procedure: (§1) Stock solutions of drugs were prepared in dimethyl sulfoxide (DMSO) and dissolved in medium prior to use. […] For these two drugs, the highest DMSO concentration was 1 %. Supernatant was collected at 48 hr for measurement of cytokines, and remaining cells were subjected to viability assay prior to lysis for RNA extraction.
# [5] = AlamarBlue cell viability in HIVIL; details: human
# Procedure: as §1
smiles,measurement,setting,value
"N[C@@H]1[C@H]2CN(c3nc4c(cc3F)c(=O)c(C(=O)O)cn4-c3ccc(F)cc3F)C[C@@H]12 [TVX, Trovafloxacin]",Reported in-vivo (murine) responses: TNFα,TNFα,TNFα↑
same,Reported in-vivo (murine) responses: IL-6,IL-6 [1],IL-6↑
same,pro-inflammatory cytokine and chemokine mRNA expression,iHeps; LPS-treated co-cultures,significantly increased
same,FADD upregulation,"iHeps; cTVX+, 25 µM",1.7 fold
same,TNFα transcription increase,"iHeps; cTVX+, 25 µM",2.3 fold
same,cIAP-2 upregulation,"iHeps; cTVX+, 25 µM",3 fold
same,caspase 3 upregulation,"iHeps; cTVX+, 25 µM",1.8 fold
same,IL-8 transcription increase,"iHeps; co-culture, cTVX+ vs. cVeh+, 25 µM",3.2 fold
same,TNFα transcription,"iHeps; mTVX+ compared to mVeh+, 25 µM",0.9 fold
same,cIAP-2 upregulation,"iHeps; mTVX+, 25 µM",1.5 fold
same,IL-8 transcription increase,"iHeps; mono-culture, mTVX+ vs. mVeh+, 25 µM",1.3 fold
same,IL-6 transcription in iHeps,"iHeps; regardless of culture conditions, result in words",slightly decreased
same,effect on cytokine production,IL-6 [2]; high doses (>25 μM),inhibitory effects
same,IL-6 induction,IL-6 [2]; low dose 3.125 μM and 6.25 μM,1.5 fold
same,IC50,"IL-6 [2]; Homo sapiens, LPS, 48 hr",16.2 µM
same,IL-6 decline after 24 h,IL-6 [3],57.3%
same,IC50,"[4]; Homo sapiens, 48 h, read-out: IC50: viability",87.7 µM
same,"viability profiles among iHeps, iKCs and HIVIL",[4]; comparison of mono-cultures and co-culture,similar
same,viability at 48 hr,[5],63.4 ± 5%
